Where two headings read alike, the source gives them in different places.
Legend:
[1] = tested on: mouse microglial cell line MG6; conditions: cited from earlier work
Kuming mice = conditions: acute toxicity study; cited from earlier work
Rat [2] = conditions: in vivo; cited from earlier work
[3] = Human equivalent dose estimate of the forskolin LD50 (Reagan-Shaw)
mice ear edema = conditions: cited from earlier work
NF-κB pathway = conditions: cited from earlier work
NO production = conditions: cited from earlier work
[4] = tested on: diabetic and at-risk-of-diabetes patients; conditions: 1.5 to 3 g daily for several years; cited from earlier work
isolated rat lungs = conditions: dose-dependent; cited from earlier work
[5] = cited from earlier work; for half-life: oral
mouse endothelial cells = conditions: cited from earlier work
mouse = conditions: cited from earlier work
Rat [6] = conditions: cited from earlier work
[7] = biological target: acetylcholinesterase (AChE) (Homo sapiens, UniProt P22303); conditions: colorimetric method; cited from earlier work
[8] = tested on: Dopamine beta-hydroxylase (DBH) mRNA in PC12 cells; conditions: cited from earlier work
[9] = tested on: tyrosine hydroxylase (TH) mRNA in PC12 cells; conditions: cited from earlier work
[10] = oral intakes up to 4.6 grams per day; cited from earlier work
[11] = cited from earlier work

Chain of acetylcholinesterase (AChE) (P22303 32-614, species assumed): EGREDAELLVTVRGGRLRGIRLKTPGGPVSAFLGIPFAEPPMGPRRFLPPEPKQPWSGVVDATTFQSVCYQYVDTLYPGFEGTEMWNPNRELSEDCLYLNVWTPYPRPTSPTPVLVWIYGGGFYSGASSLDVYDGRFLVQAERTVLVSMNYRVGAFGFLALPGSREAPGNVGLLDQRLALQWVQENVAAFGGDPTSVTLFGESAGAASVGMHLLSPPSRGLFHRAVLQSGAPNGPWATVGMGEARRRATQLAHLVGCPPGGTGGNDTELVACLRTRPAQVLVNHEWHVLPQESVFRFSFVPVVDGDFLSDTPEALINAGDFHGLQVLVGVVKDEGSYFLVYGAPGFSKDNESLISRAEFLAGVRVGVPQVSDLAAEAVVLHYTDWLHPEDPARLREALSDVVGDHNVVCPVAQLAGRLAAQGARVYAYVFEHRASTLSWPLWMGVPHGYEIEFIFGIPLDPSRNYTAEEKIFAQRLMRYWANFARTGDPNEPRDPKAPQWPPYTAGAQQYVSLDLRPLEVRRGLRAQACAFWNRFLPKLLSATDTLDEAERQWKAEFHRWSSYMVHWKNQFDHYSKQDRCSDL

CC(C)c1cc2c(c(O)c1O)[C@@]1(C(=O)O)CCCC(C)(C)[C@@H]1CC2 [carnosic acid]
NO production ([1]; associated with decrease in inducible NO synthase): inhibited
cell survival ([1]; at the concentrations used): Neither CA nor LPS affected cell survival
LPS-induced activation of MG6 cells ([1]; in vitro): inhibited
oral lethal dose (LD50) (Kuming mice): 7100 mg/kg of body weight

C=C[C@@]1(C)CC(=O)[C@]2(O)[C@@]3(C)[C@@H](O)CCC(C)(C)[C@@H]3[C@H](O)[C@H](OC(C)=O)[C@@]2(C)O1 [forskolin]
oral LD50 (rat) (Rat [2]): 2,550 mg/kg
estimated LD50 in a person ([3]; 100 pound (45.4 Kg) person): 18,773.51 mg
LD50 ([3]; rat, oral, 2550×(6/37), Reagan-Shaw, read-out: HED of the rat LD50): 413 mg/kg

CC(C)=CCCC(C)=CC=O [citral]
inflammation reduction, ear edema (mice ear edema; 0.1 mg per ear): 22%
inflammation reduction, ear edema (mice ear edema; 0.3 mg per ear): 83%
activity on COX-2 (NF-κB pathway): could not efficiently suppress
expression of IKK, iNOS, and nuclear NF-κB (NF-κB pathway; dose-dependent): decreased
NO production inhibitory activity, IC50 (NO production): 13.18 µg/mL

NC(=O)c1cccnc1 [niacinamide, nicotinamide]
effect on biochemical parameters including liver and kidney function tests [4]: no effect
PMA-induced pathophysiological and biochemical changes (acute lung injury) (isolated rat lungs): diminished
half-life cautiously assumed for humans ([5]; agreement of both studies): 4 h
effect on blood pressure, pulse or body temperature ([5]; human, oral doses of 1-6 g): no detectable effect
half-life ([5]; human, 1-g dose): ~1.5 h
half-life ([5]; human, 2 g): ~4 h
half-life ([5]; human, 4 and 6 g): 7 to 9 h
SEB-induced endothelial NO production (mouse endothelial cells; IFN-primed endothelial cells): significantly reduced
IFN-gamma induction of endothelial class II MHC surface antigen (mouse endothelial cells): markedly reduced
iNOS mRNA levels (mouse endothelial cells): reduced
LD50 (mouse): 2500 mg/kg
LD50 (Rat [6]): 3500 mg/kg

CC1=CCC2C(C1)C2(C)C (single isomer, unassigned; (+)) [(+)-3-carene]
Inhibition of AChE [7]: potent inhibitors

CN1CCCC1c1cccnc1 (centres unmarked) [Nicotine]
increase of DBH mRNA levels [8]: 3.1 fold
increase of TH mRNA levels [9]: 3.3 fold

phosphatidylcholine [PC]
tolerability [10]: very well tolerated

CC1=CC[C@@H]2C[C@H]1C2(C)C [(+)-alpha-pinene]
Inhibition of AChE [7]: potent inhibitors

CC1=CC[C@H]2C[C@@H]1C2(C)C [(−)-alpha-pinene]
Inhibition of AChE [7]: potent inhibitors

CNCC(=O)O [sarcosine, N-methylglycine]
safety ([11]; 2 and 4 gm/d for one week): appears to be safe
time to peak concentration in serum ([11]; human, 2 and 4 gm/d): two

B1: interleukin-10: interleukin-10 (protein, UniProt P22301 19-178, looked up)
Interleukin-10: SPGQGTQSENSCTHFPGNLPNMLRDLRDAFSRVKTFFQMKDQLDNLLLKESLLEDFKGYLGCQALSEMIQFYLEEVMPQAENQDPDIKAHVNSLGENLKTLRLRLRRCHRFLPCENKSKAVEQVKNAFNKLQEKGIYKAMSEFDIFINYIEAYMTMKIRN
IFN-gamma induction of endothelial class II MHC surface antigen (mouse endothelial cells): no effect
SEB-induced endothelial NO production (mouse endothelial cells): significantly reduced
iNOS mRNA levels (mouse endothelial cells): did not consistently reduce

Reference: US9463210B1, “Method for alleviating cravings and discomfort associated with smoking cessation8” (priority 2015, dated 2016)
